Measurements as given in patent US20150038438A1, “ANTIBACTERIAL COMPOUNDS AND METHODS FOR USE” (PTC THERAPEUTICS, INC., priority 2011, published 2015).

How the values were obtained:
Assay in all cases: Antibacterial activity, microbroth dilution method (MIC)
[1] = tested on: control Gram-negative E. coli 25922 strain; assay type: cell-based, Escherichia coli; conditions: Escherichia coli
Text: (§1) The antibacterial activity from a microbroth dilution method may be presented as the minimum inhibitory concentration (MIC in μg/mL). The MIC value is the lowest concentration of drug which prevents macroscopically visible growth under test conditions.
(§2) Antibacterial activity of test compounds against the super sensitive Gram-negative Escherichia coli (E. coli) BAS849 bacterium, the control Gram-negative E. coli 25922 strain and the Gram-positive Staphylococcus aureus (S. aureus) 29213 bacterium are shown in Table 1.

[2] = tested on: super sensitive Gram-negative Escherichia coli (E. coli) BAS849; assay type: cell-based; conditions: Escherichia coli; super sensitive Gram-negative E. coli BAS849; microbroth dilution; read-out: MIC, E. coli BAS849
Text: as §1, §2

[3] = tested on: Gram-positive Staphylococcus aureus (S. aureus) 29213; assay type: cell-based; conditions: Staphylococcus aureus, Gram-positive S. aureus 29213
Text: as §1, §2

`CCNCc1cc2cc3c(cc2n1C)CCCc1c-3[nH]c(=O)c(C(=O)O)c1O.Cl` [Cpd 25, 10-((ethylamino)methyl)-4-hydroxy-9-methyl-2-oxo-1,2,5,6,7,9-hexahydropyrido[3′,2′:6,7]cyclohepta[1,2-f]indole-3-carboxylic acid hydrochloride] was tested, and the MIC [1] was under 1 µg/mL, the MIC [2] was under 1 µg/mL and the MIC [3] was 3.5 to 12.5 µg/mL.

With `CC(C)NCc1cc2cc3c(cc2n1C)CCCc1c-3[nH]c(=O)c(C(=O)O)c1O.Cl` [Cpd 26, 4-hydroxy-10-((isopropylamino)methyl)-9-methyl-2-oxo-1,2,5,6,7,9-hexahydropyrido[3′,2′:6,7]cyclohepta[1,2-f]indole-3-carboxylic acid hydrochloride] the MIC [1] was under 1 µg/mL, the MIC [2] was under 1 µg/mL and the MIC [3] was 3.5 to 12.5 µg/mL.

`Cl.Cn1c(CNC(C)(C)C)cc2cc3c(cc21)CCCc1c-3[nH]c(=O)c(C(=O)O)c1O` [Cpd 27, 10-((tert-butylamino)methyl)-4-hydroxy-9-methyl-2-oxo-1,2,5,6,7,9-hexahydropyrido[3′,2′:6,7]cyclohepta[1,2-f]indole-3-carboxylic acid hydrochloride] gave an MIC [1] of under 1 µg/mL, an MIC [2] of under 1 µg/mL and an MIC [3] of 1 to 3.5 µg/mL.

`Cl.Cn1c(CN2CCC(O)CC2)cc2cc3c(cc21)CCCc1c-3[nH]c(=O)c(C(=O)O)c1O` [Cpd 28, 4-hydroxy-10-((4-hydroxypiperidin-1-yl)methyl)-9-methyl-2-oxo-1,2,5,6,7,9-hexahydropyrido[3′,2′:6,7]cyclohepta[1,2-f]indole-3-carboxylic acid hydrochloride] showed an MIC [1] of 1 to 3.5 µg/mL, an MIC [2] of under 1 µg/mL and an MIC [3] of 3.5 to 12.5 µg/mL.

Work on `Cl.Cl.Cn1c(CN2CCC(N)CC2)cc2cc3c(cc21)CCCc1c-3[nH]c(=O)c(C(=O)O)c1O` [Cpd 29, 10-((4-aminopiperidin-1-yl)methyl)-4-hydroxy-9-methyl-2-oxo-1,2,5,6,7,9-hexahydropyrido[3′,2′:6,7]cyclohepta[1,2-f]indole-3-carboxylic acid dihydrochloride] yielded an MIC [1] of 1 to 3.5 µg/mL, an MIC [2] of under 1 µg/mL and an MIC [3] of 12.5 to 150 µg/mL.

`CN(C)C1CCN(Cc2cc3cc4c(cc3n2C)CCCc2c-4[nH]c(=O)c(C(=O)O)c2O)CC1.Cl.Cl` [Cpd 30, 10-((4-(dimethylamino)piperidin-1-yl)methyl)-4-hydroxy-9-methyl-2-oxo-1,2,5,6,7,9-hexahydropyrido[3′,2′:6,7]cyclohepta[1,2-f]indole-3-carboxylic acid dihydrochloride] gave an MIC [1] of 3.5 to 12.5 µg/mL, an MIC [2] of under 1 µg/mL and an MIC [3] of 3.5 to 12.5 µg/mL.

`Cl.Cl.Cn1c(CN2CCCC(N)C2)cc2cc3c(cc21)CCCc1c-3[nH]c(=O)c(C(=O)O)c1O` (stereo not drawn) [Cpd 31, 10-((3-aminopiperidin-1-yl)methyl)-4-hydroxy-9-methyl-2-oxo-1,2,5,6,7,9-hexahydropyrido[3′,2′:6,7]cyclohepta[1,2-f]indole-3-carboxylic acid dihydrochloride] gave an MIC [1] of 3.5 to 12.5 µg/mL, an MIC [2] of 1 to 3.5 µg/mL and an MIC [3] of 12.5 to 150 µg/mL.

`Cl.Cn1c(CNCC2CC2)cc2cc3c(cc21)CCCc1c-3[nH]c(=O)c(C(=O)O)c1O` [Cpd 32, 10-(((cyclopropylmethyl)amino)methyl)-4-hydroxy-9-methyl-2-oxo-1,2,5,6,7,9-hexahydropyrido[3′,2′:6,7]cyclohepta[1,2-f]indole-3-carboxylic acid hydrochloride] gave an MIC [1] of 1 to 3.5 µg/mL, an MIC [2] of under 1 µg/mL and an MIC [3] of 1 to 3.5 µg/mL.

With `Cl.Cn1c(CNC2(C)CC2)cc2cc3c(cc21)CCCc1c-3[nH]c(=O)c(C(=O)O)c1O` [Cpd 33, 4-hydroxy-9-methyl-10-(((1-methylcyclopropyl)amino)methyl)-2-oxo-1,2,5,6,7,9-hexahydropyrido[3′,2′:6,7]cyclohepta[1,2-f]indole-3-carboxylic acid hydrochloride] the MIC [1] was under 1 µg/mL, the MIC [2] was under 1 µg/mL and the MIC [3] was 3.5 to 12.5 µg/mL.

`Cl.Cn1c(CNCc2ccccc2)cc2cc3c(cc21)CCCc1c-3[nH]c(=O)c(C(=O)O)c1O` [Cpd 34, 10-((benzylamino)methyl)-4-hydroxy-9-methyl-2-oxo-1,2,5,6,7,9-hexahydropyrido[3′,2′:6,7]cyclohepta[1,2-f]indole-3-carboxylic acid hydrochloride] showed an MIC [1] of 1 to 3.5 µg/mL, an MIC [2] of under 1 µg/mL and an MIC [3] of 1 to 3.5 µg/mL.

Compound `Cl.Cn1c(CN)cc2cc3c(cc21)CCCc1c-3[nH]c(=O)c(C(=O)O)c1O` [Cpd 35, 10-(aminomethyl)-4-hydroxy-9-methyl-2-oxo-1,2,5,6,7,9-hexahydropyrido[3′,2′:6,7]cyclohepta[1,2-f]indole-3-carboxylic acid hydrochloride] has an MIC [1] of 1 to 3.5 µg/mL, an MIC [2] of under 1 µg/mL and an MIC [3] of 3.5 to 12.5 µg/mL.

Work on `Cl.Cn1c(CNC2CC2)cc2cc3c(cc21)CCCc1c-3[nH]c(=O)c(C(=O)O)c1O` [Cpd 36, 10-((cyclopropylamino)methyl)-4-hydroxy-9-methyl-2-oxo-1,2,5,6,7,9-hexahydropyrido[3′,2′:6,7]cyclohepta[1,2-f]indole-3-carboxylic acid hydrochloride] yielded an MIC [1] of 1 to 3.5 µg/mL, an MIC [2] of under 1 µg/mL and an MIC [3] of 3.5 to 12.5 µg/mL.

For `Cl.Cn1c(CNCC2CCC2)cc2cc3c(cc21)CCCc1c-3[nH]c(=O)c(C(=O)O)c1O` [Cpd 37, 10-(((cyclobutylmethyl)amino)methyl)-4-hydroxy-9-methyl-2-oxo-1,2,5,6,7,9-hexahydropyrido[3′,2′:6,7]cyclohepta[1,2-f]indole-3-carboxylic acid hydrochloride], the MIC [1] was 1 to 3.5 µg/mL, the MIC [2] was under 1 µg/mL and the MIC [3] was 3.5 to 12.5 µg/mL.

Work on `CC1CC1CNCc1cc2cc3c(cc2n1C)CCCc1c-3[nH]c(=O)c(C(=O)O)c1O.Cl` (stereo not drawn) [Cpd 38, 4-hydroxy-9-methyl-10-((((2-methylcyclopropyl)methyl)amino)methyl)-2-oxo-1,2,5,6,7,9-hexahydropyrido[3′,2′:6,7]cyclohepta[1,2-f]indole-3-carboxylic acid hydrochloride] yielded an MIC [1] of 1 to 3.5 µg/mL, an MIC [2] of under 1 µg/mL and an MIC [3] of 3.5 to 12.5 µg/mL.

Compound `Cl.Cn1c(CNCc2ccncc2)cc2cc3c(cc21)CCCc1c-3[nH]c(=O)c(C(=O)O)c1O` [Cpd 39, 4-hydroxy-9-methyl-2-oxo-10-(((pyridin-4-ylmethyl)amino)methyl)-1,2,5,6,7,9-hexahydropyrido[3′,2′:6,7]cyclohepta[1,2-f]indole-3-carboxylic acid hydrochloride] has an MIC [1] of 3.5 to 12.5 µg/mL, an MIC [2] of under 1 µg/mL and an MIC [3] of 3.5 to 12.5 µg/mL.

In the case of `Cl.Cn1c(CN2CCCCC2)cc2cc3c(cc21)CCCc1c-3[nH]c(=O)c(C(=O)O)c1O` [Cpd 40, 4-hydroxy-9-methyl-2-oxo-10-(piperidin-1-ylmethyl)-1,2,5,6,7,9-hexahydropyrido[3′,2′:6,7]cyclohepta[1,2-f]indole-3-carboxylic acid hydrochloride], the MIC [1] is reported as 1 to 3.5 µg/mL, the MIC [2] is reported as under 1 µg/mL and the MIC [3] is reported as 3.5 to 12.5 µg/mL.

With `Cl.Cn1c(CN2CCOCC2)cc2cc3c(cc21)CCCc1c-3[nH]c(=O)c(C(=O)O)c1O` [Cpd 41, 4-hydroxy-9-methyl-10-(morpholinomethyl)-2-oxo-1,2,5,6,7,9-hexahydropyrido[3′,2′:6,7]cyclohepta[1,2-f]indole-3-carboxylic acid hydrochloride] the MIC [1] was 3.5 to 12.5 µg/mL, the MIC [2] was under 1 µg/mL and the MIC [3] was 1 to 3.5 µg/mL.

`CN1CCN(Cc2cc3cc4c(cc3n2C)CCCc2c-4[nH]c(=O)c(C(=O)O)c2O)CC1.Cl.Cl` [Cpd 42, 4-hydroxy-9-methyl-10-((4-methylpiperazin-1-yl)methyl)-2-oxo-1,2,5,6,7,9-hexahydropyrido[3′,2′:6,7]cyclohepta[1,2-f]indole-3-carboxylic acid dihydrochloride] showed an MIC [1] of 3.5 to 12.5 µg/mL, an MIC [2] of under 1 µg/mL and an MIC [3] of 3.5 to 12.5 µg/mL.
